Source: paper PMC7553383 (ACS Chemical Neuroscience, 2020)

What was measured:
GIRK1/4 channels = molecular target: T1, GIRK1/4 channels (Homo sapiens, UniProt P48544+P48549); assay: Ligand-induced GIRK channel block in oocytes expressing GIRK channels in the absence of D2R; format: cell-based; conditions: for Current amplitude following application of ligand in the absence of D2R expression: oocytes injected with GIRK1 and GIRK4; for Ligand-induced GIRK channel block: 30 μM ligand, oocytes without D2R
T1 sequence (P48549 1-501): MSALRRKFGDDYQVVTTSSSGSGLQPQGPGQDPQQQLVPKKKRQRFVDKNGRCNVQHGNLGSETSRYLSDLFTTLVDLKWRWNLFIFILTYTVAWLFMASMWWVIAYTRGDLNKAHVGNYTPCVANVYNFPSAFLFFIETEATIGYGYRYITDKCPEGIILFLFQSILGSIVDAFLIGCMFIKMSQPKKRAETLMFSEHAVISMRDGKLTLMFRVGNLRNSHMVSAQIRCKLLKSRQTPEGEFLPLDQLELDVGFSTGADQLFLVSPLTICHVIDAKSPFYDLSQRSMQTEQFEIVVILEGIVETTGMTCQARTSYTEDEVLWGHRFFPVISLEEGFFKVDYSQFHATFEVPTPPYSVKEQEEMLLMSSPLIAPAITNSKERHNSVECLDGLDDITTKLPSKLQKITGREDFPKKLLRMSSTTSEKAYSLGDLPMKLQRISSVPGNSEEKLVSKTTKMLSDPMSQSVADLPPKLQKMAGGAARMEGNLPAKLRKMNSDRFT
T1 sequence (P48544 1-419): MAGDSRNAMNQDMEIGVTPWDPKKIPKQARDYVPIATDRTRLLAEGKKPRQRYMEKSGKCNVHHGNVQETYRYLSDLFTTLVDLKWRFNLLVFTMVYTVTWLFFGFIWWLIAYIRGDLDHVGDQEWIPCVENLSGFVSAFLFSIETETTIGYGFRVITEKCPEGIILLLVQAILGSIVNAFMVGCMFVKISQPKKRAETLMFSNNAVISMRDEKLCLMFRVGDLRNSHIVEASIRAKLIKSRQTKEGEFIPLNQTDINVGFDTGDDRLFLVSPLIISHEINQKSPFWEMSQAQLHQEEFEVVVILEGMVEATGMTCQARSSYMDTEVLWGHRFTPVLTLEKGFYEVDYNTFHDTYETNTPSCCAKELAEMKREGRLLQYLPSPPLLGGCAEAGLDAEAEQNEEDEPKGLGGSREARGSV
From the text: Figure S1. Effect of competing ligands on GIRK currents in the absence of D2R expression. Current
Figure S2. Intrinsic activities of aripiprazole analogues at WT D2R. Agonist responses of SWR-1-8, SV-III- […]

D2R WT [1] = molecular target: T2, D2R WT (Homo sapiens, UniProt P14416); assay: cell-based
T2 sequence (P14416 whole entry): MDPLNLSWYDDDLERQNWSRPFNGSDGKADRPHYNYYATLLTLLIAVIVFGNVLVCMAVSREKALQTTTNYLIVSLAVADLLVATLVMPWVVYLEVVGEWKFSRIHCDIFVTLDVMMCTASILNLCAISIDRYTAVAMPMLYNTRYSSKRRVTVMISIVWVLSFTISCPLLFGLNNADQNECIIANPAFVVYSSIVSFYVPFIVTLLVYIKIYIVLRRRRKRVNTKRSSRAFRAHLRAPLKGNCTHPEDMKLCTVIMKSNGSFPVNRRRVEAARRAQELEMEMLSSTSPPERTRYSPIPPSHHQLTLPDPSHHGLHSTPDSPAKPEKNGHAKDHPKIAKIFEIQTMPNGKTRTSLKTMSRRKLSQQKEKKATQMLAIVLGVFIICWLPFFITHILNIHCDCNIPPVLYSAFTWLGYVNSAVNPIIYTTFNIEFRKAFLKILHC

D2R = molecular target: T3, D2R (Homo sapiens, UniProt P14416); assay: BRET beta-arrestin2 recruitment curve-shift assay in transfected HEK293 cells; format: cell-based; conditions: 5 min preincubation with antagonist before dopamine
T3 construct: expressed in transfected cells
T3 sequence (P14416 whole entry): as above

D2R WT [2] = molecular target: T2, D2R WT; assay: G protein-coupled inward rectifier potassium (GIRK) channel activation assay in Xenopus oocytes coexpressing D2R, RGS4 and GIRK1/4

Current amplitude following application of ligand in the absence of D2R expression (GIRK1/4 channels; 1 µM ligand)	Ligand-induced GIRK channel block (GIRK1/4 channels)	Current amplitude following application of ligand in the absence of D2R expression (GIRK1/4 channels; 30 µM ligand)	Ki (D2R WT [1])	mode of antagonism of DA-induced beta-arrestin2 recruitment (D2R)	Kd (D2R WT [2])	koff (D2R WT [2])	intrinsic activity in the GIRK activation assay (in words) (D2R WT [2]; WT D2R, normalized to 1 μM DA)	SMILES
1.00 ± 0.02	< 10%							COc1ccccc1N1CCN(CCCCOc2ccc3c(c2)NC(=O)CC3)CC1 [SV-III-130]
	< 10%	0.90 ± 0.01						COc1ccccc1N1CCN(CCCCCOc2ccc3c(c2)NC(=O)CC3)CC1 [SWR-1-14]
	< 10%	0.99 ± 0.06	9.77 nM	competitive antagonism	50.1 nM	0.017 ± 0.002 s⁻¹	antagonists/inverse agonists	COc1ccccc1N1CCN(CCCOc2ccc3c(c2)NC(=O)CC3)CC1 [SWR-1-8]
